Experimental data taken from patent US7312210B2, “Pyrrolo[2,1-c][1,4]benzodiazepine compounds and processes for the preparation thereof” (Council of Scientific and Industrial Research, priority 2005, dated 2007).

Legend:
[1] = test system: Leukemia cancer cell lines; test: NCI in vitro cytotoxicity screen (SRB assay), leukemia cell lines; format: cell-based, human; settings: average of six to nine different cancer cell lines, 48 h exposure
Description: (§1) Biological Activity: In vitro biological activity studies were carried out at the National Cancer Institute (USA).
(§2) Cytotoxicity: The compounds 7-methoxy-8-{5-[4-(2-oxo-2H-4-chromenyl)piperazino]pentyl}-oxy-(11aS)-1,2,3,11a-5H-pyrrolo[2,1-c][1,4]benzodiazepin-5-one, 7-methoxy-8-{3-[4-(7-methoxy-8-methyl-2-oxo-2H-4-chromenyl)piperazino]propyl}-oxy-(11aS)-1,2,3,11a-5H-pyrrolo[2,1-c][1,4]benzodiazepin-5-one and 7-methoxy-8-{5-[4-(7-methoxy-8-methyl-2-oxo-2H-4-chromenyl)piperazino]pentyl}-oxy-(11aS)-1,2,3,11a-5H-pyrrolo[2,1-c][1,4]benzodiazepin-5-one were evaluated for in vitro anticancer activity against sixty human tumor cells derived from […] (leukemia, non-small-cell lung, colon, CNS, melanoma, ovarian, prostate, and breast cancer) as shown in (Table 2). For each compound, dose response curves for each cell line were measured at a minimum of five concentrations at 10 fold dilutions. A protocol of 48 h continuous drug exposure was used and a sulforhodamine B (SRB) protein assay was used to estimate cell viability or growth. The concentration causing 50% cell growth inhibition (GI50), total cell growth inhibition (TGI 0% growth) and 50% cell death (LC50, −50% growth) compared with the control was calculated.
(§3) Each cancer type represents the average of six to nine different cancer cell lines.

CNS cancer cell lines = test: NCI in vitro cytotoxicity screen (SRB assay), CNS cell lines; format: cell-based, human; settings: average of six to nine different cancer cell lines, 48 h exposure
Description: as §1, §2, §3

Renal cancer cell lines = test: NCI in vitro cytotoxicity screen (SRB assay), renal cell lines; format: cell-based, human; settings: average of six to nine different cancer cell lines, 48 h exposure
Description: as §1, §2, §3

[2] = test system: Ovarian cancer cell lines; test: NCI in vitro cytotoxicity screen (SRB assay), ovarian cell lines; format: cell-based, human; settings: average of six to nine different cancer cell lines, 48 h exposure
Description: as §1, §2, §3

Breast cancer cell lines = test: NCI in vitro cytotoxicity screen (SRB assay), breast cell lines; format: cell-based, human; settings: average of six to nine different cancer cell lines, 48 h exposure
Description: as §1, §2, §3

[3] = test system: Melanoma cancer cell lines; test: NCI in vitro cytotoxicity screen (SRB assay), melanoma cell lines; format: cell-based, human; settings: average of six to nine different cancer cell lines, 48 h exposure
Description: as §1, §2, §3

[4] = test system: Non-small-cell-lung cancer cell lines; test: NCI in vitro cytotoxicity screen (SRB assay), non-small-cell-lung cell lines; format: cell-based, human; settings: average of six to nine different cancer cell lines, 48 h exposure
Description: as §1, §2, §3

[5] = test system: Prostate cancer cell lines; test: NCI in vitro cytotoxicity screen (SRB assay), prostate cell lines; format: cell-based, human; settings: average of six to nine different cancer cell lines, 48 h exposure
Description: as §1, §2, §3

Colon cancer cell lines = test: NCI in vitro cytotoxicity screen (SRB assay), colon cell lines; format: cell-based, human; settings: average of six to nine different cancer cell lines, 48 h exposure
Description: as §1, §2, §3

[6] = test system: sixty human tumor cells derived from nine cancer types; test: NCI in vitro cytotoxicity screen (SRB assay), mean graph midpoints over all cell lines; format: cell-based; settings: for Log10LC50 mean graph midpoint (MG_MID): 50% cell death (−50% growth); for Log10LC50 mean graph midpoint (MG_MID) / Log10GI50 mean graph midpoint (MG_MID) / Log10TGI mean graph midpoint (MG_MID): 48 h continuous drug exposure, SRB protein assay, human tumor cell lines; for Log10GI50 mean graph midpoint (MG_MID): 50% cell growth inhibition; for Log10TGI mean graph midpoint (MG_MID): total cell growth inhibition (0% growth)
Description: as §1, §2

SMILES | Log10LC50 concentration in mol/L causing 50% lethality [1] | Log10LC50 concentration in mol/L causing 50% lethality (CNS cancer cell lines) | Log10LC50 concentration in mol/L causing 50% lethality (Renal cancer cell lines) | Log10LC50 concentration in mol/L causing 50% lethality [2] | Log10LC50 concentration in mol/L causing 50% lethality (Breast cancer cell lines) | Log10LC50 concentration in mol/L causing 50% lethality [3] | Log10LC50 concentration in mol/L causing 50% lethality [4] | Log10LC50 concentration in mol/L causing 50% lethality [5] | Log10LC50 concentration in mol/L causing 50% lethality (Colon cancer cell lines) | Log10LC50 mean graph midpoint (MG_MID) [6] | Log10GI50 mean graph midpoint (MG_MID) [6] | Log10TGI mean graph midpoint (MG_MID) [6] | mean graph pattern: profile of activity and selectivity ([6]; various cell lines)
COc1cc2c(cc1OCCCCCN1CCN(c3cc(=O)oc4ccccc34)CC1)N=C[C@@H]1CCCN1C2=O [Compound 5c, 7-Methoxy-8-{5-[4-(2-oxo-2H-4-chromenyl)piperazino]pentyl}-oxy-(11aS)-1,2,3,11a-5H-pyrrolo[2,1-c][1,4]benzodiazepin-5-one] | −5.03 mol/L | −4.70 mol/L | −5.26 mol/L | −5.44 mol/L | −4.71 mol/L | −5.68 mol/L | −4.92 mol/L | −4.53 mol/L | −5.24 mol/L | −4.99 | −7.68 | −6.66 | interesting profile of activity and selectivity for various cell lines
COc1cc2c(cc1OCCCN1CCN(c3cc(=O)oc4c(C)c(OC)ccc34)CC1)N=C[C@@H]1CCCN1C2=O [Compound 5d, 7-Methoxy-8-{3-[4-(7-methoxy-8-methyl-2-oxo-2H-4-chromenyl)piperazino]propyl}-oxy-(11aS)-1,2,3,11a-5H-pyrrolo[2,1-c][1,4]benzodiazepin-5-one] | −4.22 mol/L | −4.11 mol/L | −5.29 mol/L | −4.00 mol/L | −4.11 mol/L | −4.34 mol/L | −4.23 mol/L | −4.00 mol/L | −4.87 mol/L | −4.19 | −5.68 | −4.86 | –
COc1cc2c(cc1OCCCCCN1CCN(c3cc(=O)oc4c(C)c(OC)ccc34)CC1)N=C[C@@H]1CCCN1C2=O [Compound 5f, 7-Methoxy-8-{5-[4-(7-methoxy-8-methyl-2-oxo-2H-4-chromenyl)piperazino]pentyl}-oxy-(11aS)-1,2,3,11a-5H-pyrrolo[2,1-c][1,4]benzodiazepin-5-one] | −5.39 mol/L | −4.63 mol/L | −5.17 mol/L | −4.28 mol/L | −4.52 mol/L | −5.29 mol/L | −4.87 mol/L | −4.85 mol/L | −5.41 mol/L | −4.96 | −6.49 | −5.85 | –
